Molecules are shown by their SMILES. Where a name gives a salt, the structure may show the parent alone.

The assay concerns the target T1, human MCH1R receptor (Homo sapiens, UniProt Q99705).
T1 construct: host or cells: CHO-K1
The assay can be described thus: Binding assay: [125I]-MCH displacement by SPA on CHO-K1 hMCHR1 membranes. The settings on record: calculated from IC50 using the Cheng Prushoff equation; 0.2 nM [125I]-MCH; CHO-K1 hMCHRI membranes. As to the method:
The compounds according to the invention were evaluated for their binding to the human MCH1R receptor by the following method:
Compounds. MCH peptide was purchased from Phoenix pharmaceuticals. (Phe^13, [^125I]Tyr^19 Melanine-Concentrating Hormone (human, mouse, rat) ([^125I]-MCH) was obtained from NEN life Science Products. Inc. Boston, Mass. Wheat germ agglutinine SPA beads (RPNQ 0001) were obtained from Amersham-Pharmacia Biotech. All other reagents used are of highest purity from different resources available. Protein Kits, Micro BCA™ Protein Assay Reagent Kit (Cat No. 23235) were purchased from Piece, Rockford, Ill., USA. […]
The radio labeled [^125I]-MCH was diluted with cold MCH in ratio 1:3. […] The results were calculated using Excel program and the curves were drawn using a program GraphPad Prism.
For screening of the substances the amount of the beads used was 0.25 mg/well and the amount of the membrane protein was 4 μg/well. […] The samples were counted using Microbeta counter (Wallac Trilux 1450 Micro beta counter, Wallac, Finland) for 2 minutes and the results were calculated by using the computer program Activity Base.
The Ki value is calculated from IC50 using the Cheng Prushoff equation: Ki=IC50(1+[S]/Km) [Cheng, Y. C.; Prushoff, W. H. Biochem. Pharmacol. 1973, 22, 3099-3108].

T1 sequence (Q99705 whole entry): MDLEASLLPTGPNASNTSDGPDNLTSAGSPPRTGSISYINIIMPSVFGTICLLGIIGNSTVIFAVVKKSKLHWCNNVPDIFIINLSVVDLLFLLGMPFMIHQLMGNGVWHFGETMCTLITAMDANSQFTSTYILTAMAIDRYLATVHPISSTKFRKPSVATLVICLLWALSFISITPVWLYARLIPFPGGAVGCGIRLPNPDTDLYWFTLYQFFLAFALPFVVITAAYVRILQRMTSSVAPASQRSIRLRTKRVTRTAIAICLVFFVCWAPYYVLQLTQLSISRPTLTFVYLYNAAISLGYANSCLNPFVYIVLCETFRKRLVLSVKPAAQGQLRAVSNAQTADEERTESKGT

Take `COc1ccc([C@@]23CC[C@@H](NC(=O)c4ccc(C(F)(F)F)cc4F)C[C@@H]2CN(C)C3)cc1OC` (relative stereo) [Example 44, N-[(3aS*,5R*,7aR*)-7a-(3,4-Dimethoxyphenyl)-2-methyloctahydro-1H-isoindol-5-yl]-2-fluoro-4-(trifluoromethyl)benzamide trifluoroacetate]: the inhibitory constant (Ki) is 288 nM. The same measure for `COc1ccc([C@@]23CC[C@@H](NC(=O)Nc4cc(C)cc(C)c4)C[C@@H]2CN(C)C3)cc1OC` (relative stereo) [Example 48, N-[(3 aS*,5R*,7aR*)-7a-(3,4-Dimethoxyphenyl)-2-methyloctahydro-1H-isoindol-5-yl]-N′-(3,5-dimethylphenyl)urea trifluoroacetate]: 74 nM.

Usually Ki stands for a measure of affinity in units of concentration, obtained from inhibition or displacement.

The values above are taken from patent US20070149600A1, “Substituted octahydroisoindoles” (priority 2005, published 2007).
